For one series, the system named is Caski cells. Briefly: SA-beta-gal senescence assay in Caski cells. It counts as cell-based, human. The settings on record: 72 hours, versus vehicle. The procedure:
(§1) This was specific to Caski cells and was not observed in RPE-1, HeLa cells, or the HPV negative control cell lines C33a and HaCat (Figures S2A,B ). […] As observed in the viability assay, this occurred in both the HPV positive and negative cell lines. […] These cell lines were also assayed for apoptosis.
(§2) 12,000 cells per cm^2 were plated in 24-well dishes; after 24 hours, fresh media and compound were added. SA-beta gal staining was performed as described. Images were collected using bright field microscopy. At least four fields (~100 cells per field) were read for each treatment, and experiments were repeated 3 times. The percent SA-beta-gal positive cells was calculated for each data point.

The next series concerns caspases 3 and 7. Briefly: Caspase-Glo 3/7 apoptosis assay. The class given is cell-based, human. The settings on record: 4 – 48 hours. The procedure: as §1
(§3) For cell viability, 12,000 cells per cm^2 were plated in 96-well dishes 24 hours prior to drug addition. Fresh media and compound were added. Plates were read after 72-96 hours. Relative cell viability was assayed as directed in the Celltiter 96 AQueous one solution assay (Promega). For caspase activity, plates were assayed after 4, 8, 12, 24, or 48 hours as described for the Caspase-Glo 3/7 assay (Promega).

Series [1] deals with RPE-1, HeLa, C33a and HaCat cells. Description: SA-beta-gal senescence assay in other cell lines. The settings on record: 72 hours. It counts as cell-based, human. The procedure:
as §1, §2

A further series concerns E6/E7 HFKs. Briefly: cell viability (MTS, Celltiter 96 AQueous) E6/E7 HFKs. The class given is cell-based, human. The settings on record: 48 to 96 hours, relative to DMSO.
Series [2] in a line: solubility in aqueous SPR buffers. It counts as physicochemical. The settings on record: for aqueous solubility (in words): simple aqueous solution.
Series [3] deals with HPV-18 positive HeLa cells. Description: cell viability (MTS, Celltiter 96 AQueous) HeLa. It counts as cell-based, human. The settings on record: 48 to 96 hours, relative to DMSO. The procedure:
HPV-18 positive HeLa cells and two additional control cell lines, C33a, a cell line derived from an HPV-negative human cervical cancer isolate, and HaCat, a spontaneously immortalized human keratinocyte cell line, were used to assess compounds for their impact on cell growth and viability. All cells were incubated for 48 to 96 hours with increasing doses of compound. Cell viability was measured by MTS based assay and % viability quantified relative to cells treated with DMSO. […] This is in agreement with the lack of specificity for HPV-dependent cells observed in the p53 western results.
as §3

For series [4], the system named is E6/E7 immortalized human foreskin keratinocytes. Description: p53/p21 immunoblot analysis in E6/E7 immortalized HFKs. The class given is cell-based. The settings on record: 40 hours. The procedure: Each compound was used to treat primary HFKs or HFKs immortalized through the over-expression of HPV16 E6 and E7 proteins.
(§4) 20,000 cells per cm^2 were plated in 6-well dishes. Cells were incubated for 24 hours at which time fresh media and compound were added. After 40 hours, cells were harvested, washed with cold PBS, and lysed in RIPA buffer with protease inhibitor. Each sample was separated on a 12% SDS-page gel, transferred to Immobilon-P membrane (Millipore) and blotted for the p53 (DO-1, Santa Cruz), p21 (c-19, Santa Cruz), and actin (A2066, Sigma). Protein quantification was performed with the Fujifilm LAS-4000 Multifunctional Imaging System. The signal intensity was measured for each band on an immunoblot, normalized to the loading control, and the fold increase was determined in relation to the appropriate DMSO treated control. RNA was isolated from these cells using Trizol Reagent (Invitrogen 15596-026). cDNA was generated using the Improm-II Reverse Transcription System (Promega A3801). qPCR was performed as described in the protocol for SsoFast EvaGreen supermix (BioRad 172-5023) using an BioRad CFX96 real-time PCR machine. Melting curves for each reaction were obtained. Each sample was assayed in triplicate and every plate contained a 5-point cDNA dilution course to calculate amplification efficiency for each primer pair. The Pfaffl method was used to determine the change in transcript levels relative to the DMSO and normalized to GAPDH.

The test system of another series is RPE-1 cells. Briefly: p53/p21 immunoblot analysis in RPE-1 cells. The settings on record: RPE-1 (HPV negative), 40 hours. The class given is cell-based, human. The procedure: Caski cells, which are derived from an HPV-16 infected cervical carcinoma and express HPV-16 E6 and E7, were used to determine whether these compounds interfere with HPV-16 E6 function. Inhibition of E6 should block its ability to promote the degradation of p53 thereby increasing the levels of p53. […] These compounds were also assayed in telomerase immortalized human retinal epithelial cells (RPE-1). […] If the elevation in p53 is dependent on the inhibition of E6 by these compounds, p53 should not increase in the RPE-1 cells.
as §4
(In general: In western blotting, separated proteins are transferred to a membrane and probed.)

The test system of series [5] is HPV-16 E6 mediated p53 degradation. Description: in vitro HPV-16 E6 mediated p53 degradation assay. The class given is biochemical. The procedure: In vitro expressed p53 was incubated in rabbit reticulocyte lysate in the presence or absence of in vitro expressed HPV16 E6. p53 levels were reduced in reaction containing E6 proteins (Figure 8 ).
Control reactions (no DNA, p53 alone) were incubated with 1 µL wheat germ extract and 2% DMSO in reaction buffer. In vitro translated p53 and rabbit reticulocyte lysate (RRL, Promega) were added to all reactions except the no DNA control reaction to which wheat germ extract was added instead of p53. Reactions were incubated for 3 hrs at 30°C and stopped by addition of 6X reducing SDS sample buffer and heating at 95°C for 5 min. Each reaction was loaded onto a 10% SDS-PAGE gel and transferred onto PVDF (0.45 µm). p53 and 16E6 were visualized using monoclonal p53 (Pab1801, 1:1000), monoclonal 16E6 (813, Arbor Vita Corporation, 1:4000) antibody and anti-mouse HRP-labeled secondary antibody (1:2000, Sigma-Aldrich).

Where [6] appears, read: 100 µM compound pre-incubated with E6.

Molecules are shown by their SMILES. “Also recorded” adds a separate entry of the source.

For `COc1cccc(-c2cc(=O)c3cc(-c4nnn[nH]4)ccc3o2)c1` [CAF-24], the SA-β-gal staining result is given as “increased more than two-fold” in the series with Caski cells and “not observed” in [1]. Besides, in the series on caspases 3 and 7, the “caspase 3 and 7 activity” value is “did not observe increased caspase activity”. For the same compound, the “cell growth and viability” value (in the series on E6/E7 HFKs; in series [3]) was “selectively inhibited growth” each time. Further, the “aqueous solubility (in words)” value in series [2] is recorded as “poor solubility; also recorded: limited aqueous solubility”. In addition, the p21 protein levels result in series [4] was “increased p53 and p21 protein levels”; in the series with RPE-1 cells it was “did not induce increased levels of p53 or p21 proteins”. Further, the p53 protein levels entry in series [4] is “increased p53 and p21 protein levels”; in the series on RPE-1 cells, “did not induce increased levels of p53 or p21 proteins”. Further, the “effect on E6 mediated p53 degradation” value in series [5] (10 µM compound pre-incubated with E6) and in series [5] (setting [6]) was “stabilized p53” each time.

Turning to `O=c1cc(-c2ccc(O)c(O)c2)oc2cc(O)cc(O)c12` [luteolin, reference compound], the SA-β-gal staining result (with Caski cells; in series [1]) was “no significant increase in β-gal staining” in each case. Further, the “caspase 3 and 7 activity” value in the series with caspases 3 and 7 was “did not observe increased caspase activity”. Further, the “cell growth and viability” value in the series with E6/E7 HFKs is “potent inhibitor of Caski, E6/E7 HFKs, and HeLa growth”; in [3], “potent inhibitor of Caski, E6/E7 HFKs, and HeLa growth”. In addition, the solubility in [2] (aqueous SPR buffers, read-out: concentration soluble in the appropriate buffers) was under 20 µM. Also, the “aqueous solubility (in words)” value in [2] was “poor solubility”. The p21 protein levels result in series [4] is “increased p53 and p21 protein levels”. Besides, the p53 protein levels entry in series [4] was “increased p53 and p21 protein levels”; in the series on RPE-1 cells, “increase in p53 protein levels, but only at concentrations higher than was required to increase p53 and p21 levels in the Caski cells”. The “effect on E6 mediated p53 degradation” value in series [5] (setting [6]) was “decrease in p53 was not observed”.

The values are drawn from paper PMC3871595, “Structure Based Identification and Characterization of Flavonoids That Disrupt Human Papillomavirus-16 E6 Function” (PLoS ONE, 2013).
